Data reported in US4309559A, “Sulphonamides useful as pesticides” (FBC Limited, priority 1977, dated 1982).

Tests used:
[1] = system: Ryegrass (Lolium perenne); test: Post-emergence foliar spray, herbicidal/growth regulant response, ryegrass; type: in vivo; details: 168 h, foliar spray 11.2 kg/ha, 7 days, 0=no effect, 100=complete kill, read-out: herbicidal or growth regulant response index
How it was run: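 Seedlings grown in potting compost at 22 °C, 14 h light, sprayed 14 days after sowing with compound in 1:1 aqueous acetone at 11.2 kg/ha in 450 l/ha. Visual scoring of herbicidal or growth-regulant response after 7 days versus untreated control, 0 = no effect to 100 = complete kill.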

Wild Oat (Avena fatua) = test: Pre-emergence soil surface spray, wild oat; type: in vivo; details: soil surface spray 2.8 kg/ha, 21 days, 0=no effect, 100=complete kill
How it was run: (§1)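 Compound was sprayed onto the soil surface after sowing, at 2.8 kg active ingredient per hectare in 450 liters per hectare, formulated in 1:1 aqueous acetone or as an aqueous suspension with wetting agent. Pans were held 21 days at 22° C., 65-85% humidity and 14 h light. Effects were scored visually 0-100 against an untreated control, where 100 is complete kill.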

[2] = system: Wheat (Triticum aestivum); test: Pre-emergence soil surface spray, wheat; type: in vivo; details: soil surface spray 2.8 kg/ha, 21 days, 0=no effect, 100=complete kill
How it was run: as §1

Pythium ultimum = test: Cabbage seedling emergence in soil infected with Pythium ultimum; type: in vivo, Pythium ultimum (on cabbage, variety Flower of Spring); details: 6 days, 25° C., 0-8 scale
How it was run: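 Potting compost infested with one-week maize meal/sand Pythium ultimum culture (3 kg per 12 l soil), drenched with compound in Tween 20/water at 1500, 500, 150 or 50 ppm; 15 cabbage seeds sown per carton, 25° C, four replicates. After six days, soil-surface fungal growth and seedling emergence scored 0-8.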

In the case of CCCS(=O)(=O)N(c1c(C)cccc1C)C(C)C(=O)OCC (centres unmarked) [Example 24, N-(1-[ethoxycarbonyl]ethyl)-2',6'-dimethyl-1-propanesulphonanilide], the pest or weed control at 11200 g/ha [1] is reported as 75%, the “growth regulatory or herbicidal effect score” value (Wild Oat (Avena fatua)) is reported as 100 and the “growth regulatory or herbicidal effect score” value [2] is reported as 10. The “Germination Score” value (Pythium ultimum; 30 ppm) was 1 (20-34% inhibition) and the “Germination Score” value (Pythium ultimum; 100 ppm) was 5 (65-74% inhibition).
